Measurements as given in patent US8975282B2, “Substituted pyrazolone compounds and methods of use” (Calitor Sciences, LLC, priority 2012, dated 2015).
Read-outs that look alike come from different tables or passages of the source.

Key:
c-Met (h) = c-Met (h) (Homo sapiens (Human), UniProt P08581); assay: KINOMEscan competition binding assay, c-Met (h)
KDR (h) = KDR (h) (Homo sapiens (Human), UniProt P35968); assay: KINOMEscan competition binding assay, KDR (h)
[1] = Pharmacokinetics after intravenous and oral administration in rats; type: in vivo, rat; settings: for Cl/F / AUC(0-t) / half-life / Vd: iv dosing; for F: oral bioavailability; for AUC(0-t) / half-life / Vd: rat, plasma; for Vd: read-out: Vss
Description: The compounds disclosed herein are assessed in pharmacokinetic studies in mice, rats, dogs or monkeys. The compounds are administered as a water solution, 2% HPMC+1% TWEEN®80 in water solution, 5% DMSO+5% solutol in saline, 4% MC suspension or capsule. For the intravenous administration, the animals are generally given at 1 or 2 mg/kg dose. For the oral (p.o.) dosing, mice and rats are generally given 5 or 10 mg/kg dose, and dogs and monkeys are generally given 10 mg/kg dose. The blood samples (0.3 mL) are drawn at 0.25, 0.5, 1.0, 2.0, 3.0, 4.0, 6.0, 8.0, 12 and 24 h time points or 0.083, 0.25, 0.5, 1.0, 2.0, 4.0, 6.0, 8.0 and 24 h time points and centrifuged at 3,000 or 4000 rpm for 2 to 10 min. The plasma solutions are collected, stored at −20° C. or -70° C. until analyzed by LC/MS/MS as described above.

[2] = Compound stability in rat liver microsomes; type: in vitro ADME; settings: for stability / metabolism in rat liver microsomes (in words): incubated in rat liver microsomes; for half-life at 5 μM / CLint scaled at 5 μM: pH 7.4, rat liver microsomes; for half-life at 5 μM: 0.5 mg protein/mL, compound 5 μM, NADPH 1.0 mM, 37° C.; for CLint scaled at 5 μM: in vivo CLint extrapolated
Description: Human or rat liver microsomes incubations were conducted in duplicate in polypropylene tubes. The typical incubation mixtures consisted of human or rat liver microsomes (0.5 mg protein/mL), compounds of interest (5 μM) and NADPH (1.0 mM) in a total volume of 200 μL, potassium phosphate buffer (PBS, 100 mM, pH 7.4). Compounds were dissolved in DMSO and diluted with PBS such that the final concentration of DMSO was 0.05%. The enzymatic reactions were commenced with the addition of protein after a 3-min preincubation and incubated in a water bath open to the air at 37° C. Reactions were terminated at various time points (0, 5, 10, 15, 30, 60 min) by adding equal volume of ice-cold acetonitrile. The samples were stored at −80° C. until LC/MS/MS assays.
The concentrations of compounds in the incubation mixtures of human or rat liver microsomes were determined by a LC/MS/MS method. The ranges of the linearity in the concentration range were determined for each tested compounds.
A parallel incubation was performed using denatured microsomes as the negative control, and reactions were terminated at various time points (0, 15, 60 min) after incubation at 37° C.
Dextromethorphan (70 μM) was selected as the positive control, and reactions were terminated at various time points (0, 5, 10, 15, 30, 60 min) after incubation at 37° C. Both positive and negative control samples were included in each assay to ensure the integrity of the microsomal incubation system.
The concentrations of compounds in human or rat liver microsome incubations were plotted as a percentage of the relevant zero time point control for each reaction. The in vivo CLint were extrapolated (ref: Naritomi Y, Terashita S, Kimura S, Suzuki A, Kagayama A, Sugiyama Y. Prediction of human hepatic clearance from in vivo animal experiments and in vitro metabolic studies with liver microsomes from animals and humans. Drug Metabolism and Disposition 2001, 29: 1316-1324.)

U87MG glioblastoma cells = assay: U87MG tumor xenograft model, tumor growth inhibition; type: in vivo; settings: nude mice, oral gavage once a day, 12 days
Description: The efficacy of compounds disclosed herein was evaluated in a standard murine model of tumorigenesis. Human tumor cells (U87MG glioblastoma cells from ATCC) were expended in culture, harvested, and injected subcutaneously onto the rear flank of 6-7 week old female athymic nude mice (BALB/cA nu/nu, Hunan SLAC Laboratory Animal, Co.) (n=6-10 for vehicle group and for each dosing group). When tumors reached a volume of 100-250 mm^3, animals were randomly divided into vehicle control (for example, 5% DMSO+70% Captisol® (30%), 7% HCl (pH1), 18% Captisol® (30%); or 7% DMSO, 7% HCl (pH1), 70% Captisol® (30%), 16% Captisol® (30%), or the like) and compound groups. Subsequent administration of compound by oral gavage begins anywhere from day 0 to day 15 post tumor cell challenge and generally continues with once a day for the duration of the experiment.
Progression of tumor growth is assessed by tumor volumes and recorded as a function of time. The long (L) and short (W) axes of the subcutaneous tumors were measured with calipers twice weekly, and the tumor volume (TV) calculated as (L×W^2)/2). TGI was calculated from the difference between the median tumor volumes of vehicle-treated and drug-treated mice, expressed as a percentage of the median tumor volume of the vehicle-treated control group, by the following relation:
[formula] Initial statistical analysis is done by repeated measures analysis of variance (RMANOVA), followed by Scheffe psot hoc testing for multiple comparisons. Vehicle alone (5% DMSO+70% Captisol® (30%), 7% HCl (pH1), 18% Captisol® (30%); or 7% DMSO, 7% HCl (pH1), 70% Captisol® (30%), 16% Captisol® (30%), or the like) is the negative control.

c-Met (h), sequence (P08581 25-1390): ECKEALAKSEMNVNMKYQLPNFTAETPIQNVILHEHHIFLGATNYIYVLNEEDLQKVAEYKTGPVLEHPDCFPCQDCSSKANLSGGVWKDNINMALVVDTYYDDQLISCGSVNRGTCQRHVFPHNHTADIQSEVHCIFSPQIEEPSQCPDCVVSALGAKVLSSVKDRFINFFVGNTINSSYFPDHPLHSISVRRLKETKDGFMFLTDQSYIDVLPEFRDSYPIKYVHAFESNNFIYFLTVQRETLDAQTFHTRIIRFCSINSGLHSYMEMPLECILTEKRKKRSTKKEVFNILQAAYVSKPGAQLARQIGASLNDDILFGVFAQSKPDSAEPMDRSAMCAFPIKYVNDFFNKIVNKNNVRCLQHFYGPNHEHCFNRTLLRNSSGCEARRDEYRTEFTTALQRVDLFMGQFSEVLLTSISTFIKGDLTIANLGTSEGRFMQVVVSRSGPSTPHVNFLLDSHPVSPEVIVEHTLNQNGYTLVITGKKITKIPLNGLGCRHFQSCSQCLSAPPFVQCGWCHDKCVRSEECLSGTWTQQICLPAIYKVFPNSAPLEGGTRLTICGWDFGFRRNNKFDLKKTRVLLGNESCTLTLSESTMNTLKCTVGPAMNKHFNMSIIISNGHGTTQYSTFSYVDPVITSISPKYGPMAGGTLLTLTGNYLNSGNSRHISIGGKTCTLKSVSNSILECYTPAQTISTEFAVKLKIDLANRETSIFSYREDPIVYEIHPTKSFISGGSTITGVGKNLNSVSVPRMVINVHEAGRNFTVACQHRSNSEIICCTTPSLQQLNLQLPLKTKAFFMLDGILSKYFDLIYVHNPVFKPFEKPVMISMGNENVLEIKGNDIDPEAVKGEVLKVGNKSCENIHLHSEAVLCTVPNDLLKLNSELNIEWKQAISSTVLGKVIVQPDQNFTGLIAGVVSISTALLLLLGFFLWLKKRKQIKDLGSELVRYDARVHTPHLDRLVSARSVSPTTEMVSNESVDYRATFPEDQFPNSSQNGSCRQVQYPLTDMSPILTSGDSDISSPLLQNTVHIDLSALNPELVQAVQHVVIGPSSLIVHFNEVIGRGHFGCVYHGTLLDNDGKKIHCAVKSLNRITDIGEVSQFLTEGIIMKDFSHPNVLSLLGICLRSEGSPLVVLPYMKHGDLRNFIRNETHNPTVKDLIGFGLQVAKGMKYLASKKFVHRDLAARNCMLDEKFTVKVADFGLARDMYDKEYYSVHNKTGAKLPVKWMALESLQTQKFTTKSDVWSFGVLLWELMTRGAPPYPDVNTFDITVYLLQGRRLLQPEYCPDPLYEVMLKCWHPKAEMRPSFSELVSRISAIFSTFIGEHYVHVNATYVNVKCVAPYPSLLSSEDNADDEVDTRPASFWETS
KDR (h), sequence (P35968 20-1356): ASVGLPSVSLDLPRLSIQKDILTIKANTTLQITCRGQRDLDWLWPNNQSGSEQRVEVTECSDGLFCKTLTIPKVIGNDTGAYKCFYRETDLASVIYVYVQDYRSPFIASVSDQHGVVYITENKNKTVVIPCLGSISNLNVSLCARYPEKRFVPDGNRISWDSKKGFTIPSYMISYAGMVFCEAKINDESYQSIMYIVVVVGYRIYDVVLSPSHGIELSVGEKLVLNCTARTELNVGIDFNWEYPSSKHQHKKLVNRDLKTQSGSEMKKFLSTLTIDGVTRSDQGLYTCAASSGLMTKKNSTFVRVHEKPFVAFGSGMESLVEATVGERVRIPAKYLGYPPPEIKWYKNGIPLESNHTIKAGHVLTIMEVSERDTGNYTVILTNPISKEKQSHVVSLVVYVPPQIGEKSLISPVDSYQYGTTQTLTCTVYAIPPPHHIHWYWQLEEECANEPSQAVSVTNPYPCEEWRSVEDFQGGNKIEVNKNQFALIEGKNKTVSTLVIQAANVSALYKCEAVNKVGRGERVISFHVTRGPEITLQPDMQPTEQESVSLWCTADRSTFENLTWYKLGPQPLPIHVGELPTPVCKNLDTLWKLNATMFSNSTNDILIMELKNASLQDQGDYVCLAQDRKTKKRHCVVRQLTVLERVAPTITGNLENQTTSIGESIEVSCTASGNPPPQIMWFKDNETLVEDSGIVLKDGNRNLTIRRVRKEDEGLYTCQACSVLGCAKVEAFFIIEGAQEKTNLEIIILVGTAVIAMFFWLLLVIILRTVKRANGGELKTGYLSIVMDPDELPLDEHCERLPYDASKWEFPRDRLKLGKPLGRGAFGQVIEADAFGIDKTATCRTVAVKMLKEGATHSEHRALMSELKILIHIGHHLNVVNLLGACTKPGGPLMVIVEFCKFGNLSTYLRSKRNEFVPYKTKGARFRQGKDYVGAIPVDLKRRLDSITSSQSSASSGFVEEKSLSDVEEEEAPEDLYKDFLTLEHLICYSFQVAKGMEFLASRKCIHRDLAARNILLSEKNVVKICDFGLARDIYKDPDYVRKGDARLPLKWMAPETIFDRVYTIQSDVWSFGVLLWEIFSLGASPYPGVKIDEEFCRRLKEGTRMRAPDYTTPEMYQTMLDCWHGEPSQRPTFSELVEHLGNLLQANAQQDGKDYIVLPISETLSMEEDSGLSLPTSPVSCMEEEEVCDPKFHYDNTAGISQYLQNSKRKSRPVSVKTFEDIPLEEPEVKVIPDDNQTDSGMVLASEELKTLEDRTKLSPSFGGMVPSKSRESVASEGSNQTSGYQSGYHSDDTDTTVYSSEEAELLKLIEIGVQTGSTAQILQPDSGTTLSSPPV

SMILES	Kd (c-Met (h)) [nM]	Kd (KDR (h)) [nM]	Cl/F ([1]; dose 1 mg/kg) [mL/min/kg]	F ([1]; iv dose 1 mg/kg) [%]	AUC(0-t) ([1]; dose 1 mg/kg) [ng·h/mL]	half-life ([1]; dose 1 mg/kg) [h]	Vd ([1]; dose 1 mg/kg) [L/kg]	stability / metabolism in rat liver microsomes (in words) [2]	half-life at 5 μM [2] [h]	CLint scaled at 5 μM [2] [mL/min/kg]	TGI% (on last day of dosing) (U87MG glioblastoma cells; 6 mg/kg) [%]	TGI% (on last day of dosing) (U87MG glioblastoma cells; 30 mg/kg) [%]	Cl/F ([1]; dose 2 mg/kg) [mL/min/kg]	F ([1]; iv dose 2 mg/kg) [%]	AUC(0-t) ([1]; dose 2 mg/kg) [ng·h/mL]	half-life ([1]; dose 2 mg/kg) [h]	Vd ([1]; dose 2 mg/kg) [L/kg]
Cc1c(C(=O)Nc2ccc(Oc3ccnc(C(N)=O)c3)c(F)c2)c(=O)n(-c2ccccc2)n1C [Example 10, 4-(4-(1,5-dimethyl-3-oxo-2-phenyl-2,3-dihydro-1H-pyrazole-4-carboxamido)-2-fluorophenoxy)picolinamide]	200	450															
Cc1c(C(=O)Nc2ccc(Oc3ccnc(NC(=O)C4CC4)c3)c(F)c2)c(=O)n(-c2ccccc2)n1C [Example 11, N-(4-((2-(cyclopropanecarboxamido)pyridin-4-yl)oxy)-3-fluorophenyl)-1,5-dimethyl-3-oxo-2-phenyl-2,3-dihydro-1H-pyrazole-4-carboxamide]	0.5	6.3	0.83	133.5	14000	4.61	0.34	little metabolized	3.93	10.5	56	97					
Cc1c(C(=O)Nc2ccc(Oc3ccnc(NC(=O)C4CC4)c3)cn2)c(=O)n(-c2ccccc2)n1C [Example 8, N-(5-((2-(cyclopropanecarboxamido)pyridin-4-yl)oxy)pyridin-2-yl)-1,5-dimethyl-3-oxo-2-phenyl-2,3-dihydro-1H-pyrazole-4-carboxamide]	2.4	3.2						little metabolized	11.7	3.53	32	78	0.83	85.88	38300	4.06	0.27
Cc1c(C(=O)Nc2ccc(Oc3ccnc(NC(=O)C4CC4)c3)cc2)c(=O)n(-c2ccccc2)n1C [Example 16, N-(4-((2-(cyclopropanecarboxamido)pyridin-4-yl)oxy)phenyl)-1,5-dimethyl-3-oxo-2-phenyl-2,3-dihydro-1H-pyrazole-4-carboxamide]	0.21	2.9	0.67	94.49	23400	5.95	0.31	little metabolized	7.06	5.86							
